Data published in ChEMBL document CHEMBL3301562, “MMV Box screening against Plasmodium falciparum protein kinases and aminoacyl tRNA synthetases”.

Assays:
Assay type in all cases: functional
[1] = target: T1, Cdk-related protein kinase 6 (Plasmodium falciparum, UniProt O77239); assay: Final concentrations were 1.5 uM ATP, 5 mM MnCl2, and 15 ug/ml PK6 in a buffer of 100 mM Tris-HCl (pH 7.5). 50 ug/mL MBP was provided as the substrate; 10 uM staurosporine was used as a control inhibitor. Incubation time was 3 hours and 40 minutes.The catalytic activity of each kinase was considered proportional to ATP consumed, as determined from measurements of residual [ATP] with the luciferase-based reagent Kinase-Glo (Promega) following incubation. Luminescence (proportional to residual [ATP]) was measured on the plate readers FLx800 (BioTek Instruments, Winooski, VT, USA) and MicroBeta2.
T1 sequence (O77239 whole entry): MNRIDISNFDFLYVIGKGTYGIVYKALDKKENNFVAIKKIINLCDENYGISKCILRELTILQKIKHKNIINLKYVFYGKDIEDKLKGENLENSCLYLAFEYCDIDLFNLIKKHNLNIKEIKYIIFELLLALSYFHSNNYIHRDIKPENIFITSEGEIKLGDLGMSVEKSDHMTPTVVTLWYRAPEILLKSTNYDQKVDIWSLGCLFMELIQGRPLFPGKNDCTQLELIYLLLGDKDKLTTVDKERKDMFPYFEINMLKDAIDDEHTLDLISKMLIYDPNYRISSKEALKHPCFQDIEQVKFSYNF

[2] = target: T2, Putative uncharacterized protein pk7 (Plasmodium falciparum, UniProt O96214); assay: Final concentrations were 1 uM ATP, 2 mM DTT, 20 mM MgCl2, 2 mM MnCl2, 0.01% BSA, and 6 ug/ml PK7, in a buffer of 20 mM Tris-HCl (pH 7.5). The enzyme itself was the only substrate present (since autophosphorylation occurs); 100 uM 1NA-PP1 was used as a control inhibitor. Incubation time was 3 hours.
T2 sequence (O96214 whole entry): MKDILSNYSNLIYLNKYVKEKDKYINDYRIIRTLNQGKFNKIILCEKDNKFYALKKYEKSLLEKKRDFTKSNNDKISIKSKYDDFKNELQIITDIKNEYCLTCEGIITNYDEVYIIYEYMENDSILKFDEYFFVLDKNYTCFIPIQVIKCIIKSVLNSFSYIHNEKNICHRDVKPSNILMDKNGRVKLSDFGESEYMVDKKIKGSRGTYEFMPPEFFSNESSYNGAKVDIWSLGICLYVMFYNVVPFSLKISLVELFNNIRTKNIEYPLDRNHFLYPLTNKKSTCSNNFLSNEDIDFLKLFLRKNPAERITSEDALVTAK

[3] = target: T3, Mitogen-activated protein kinase (Plasmodium falciparum, UniProt Q25917); assay: Final concentrations were 1 uM ATP, 0.5 mM DTT, 1 mM MgCl2, 0.5 mg/mL BSA, and 10 ug/ml MAP2 in a buffer of 50 mM HEPES (pH 7.0). 0.5 mg/mL histone III-S served as the substrate (13); 100 uM AMP-PNP, an ATP analog, was used as a control inhibitor. Incubation time was 4 hours.
T3 sequence (Q25917 whole entry): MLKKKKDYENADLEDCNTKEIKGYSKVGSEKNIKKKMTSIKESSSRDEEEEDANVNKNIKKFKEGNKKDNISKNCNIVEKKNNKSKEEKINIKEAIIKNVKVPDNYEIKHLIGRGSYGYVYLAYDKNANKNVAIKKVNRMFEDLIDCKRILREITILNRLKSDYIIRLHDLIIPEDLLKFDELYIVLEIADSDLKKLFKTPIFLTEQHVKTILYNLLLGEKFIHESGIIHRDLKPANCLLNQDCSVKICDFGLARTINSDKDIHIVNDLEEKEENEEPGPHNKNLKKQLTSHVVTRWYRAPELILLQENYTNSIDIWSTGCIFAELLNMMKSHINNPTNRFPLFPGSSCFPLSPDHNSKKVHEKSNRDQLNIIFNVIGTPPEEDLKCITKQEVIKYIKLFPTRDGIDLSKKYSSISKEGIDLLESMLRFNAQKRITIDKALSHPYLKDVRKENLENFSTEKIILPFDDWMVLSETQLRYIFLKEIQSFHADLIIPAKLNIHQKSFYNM

[4] = target: Calcium-dependent protein kinase 1 (Plasmodium falciparum, UniProt P62344); assay: MMV: CDPK1 Protein kinase inhibition assay using recombinant PfCDPK1, syntide 2 peptide substrate, ATP and KinaseGlo to measure % inhibition at 1 uM MMV box compound.
[5] = target: T4, Calcium-dependent protein kinase 4 (Plasmodium falciparum (isolate 3D7), UniProt Q8IBS5); assay: MMV: CDPK4 Protein kinase inhibition assay using recombinant PfCDPK4, syntide2 peptide substrate, ATP and KinaseGlo to measure % inhibition at 1 uM MMV box compound.
T4 sequence (Q8IBS5 whole entry): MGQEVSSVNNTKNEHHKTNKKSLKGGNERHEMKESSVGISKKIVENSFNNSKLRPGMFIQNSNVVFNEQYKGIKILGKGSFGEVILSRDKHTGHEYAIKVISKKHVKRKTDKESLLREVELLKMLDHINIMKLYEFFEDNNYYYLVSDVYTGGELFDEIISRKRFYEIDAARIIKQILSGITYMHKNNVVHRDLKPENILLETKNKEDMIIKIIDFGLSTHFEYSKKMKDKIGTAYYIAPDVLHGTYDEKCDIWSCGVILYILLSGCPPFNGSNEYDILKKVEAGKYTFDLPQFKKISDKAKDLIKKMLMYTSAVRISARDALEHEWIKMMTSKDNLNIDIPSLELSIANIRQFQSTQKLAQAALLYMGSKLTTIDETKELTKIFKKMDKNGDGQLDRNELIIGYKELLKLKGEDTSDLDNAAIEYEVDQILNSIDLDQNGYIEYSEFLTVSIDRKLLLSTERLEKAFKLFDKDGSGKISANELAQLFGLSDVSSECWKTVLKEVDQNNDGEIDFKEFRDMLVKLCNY

Proline--tRNA ligase = target: T5, Proline--tRNA ligase (Plasmodium falciparum (isolate 3D7), UniProt Q8I5R7); assay: MMV: ProRS recombinant Plasmodium falciparum Prolyl-tRNA-synthetase, assay with yeast tRNA, ATP, and proline and 3 uM MMV malaria box compound, assay read out with kinase glo as % inhibition.
T5 sequence (Q8I5R7 whole entry): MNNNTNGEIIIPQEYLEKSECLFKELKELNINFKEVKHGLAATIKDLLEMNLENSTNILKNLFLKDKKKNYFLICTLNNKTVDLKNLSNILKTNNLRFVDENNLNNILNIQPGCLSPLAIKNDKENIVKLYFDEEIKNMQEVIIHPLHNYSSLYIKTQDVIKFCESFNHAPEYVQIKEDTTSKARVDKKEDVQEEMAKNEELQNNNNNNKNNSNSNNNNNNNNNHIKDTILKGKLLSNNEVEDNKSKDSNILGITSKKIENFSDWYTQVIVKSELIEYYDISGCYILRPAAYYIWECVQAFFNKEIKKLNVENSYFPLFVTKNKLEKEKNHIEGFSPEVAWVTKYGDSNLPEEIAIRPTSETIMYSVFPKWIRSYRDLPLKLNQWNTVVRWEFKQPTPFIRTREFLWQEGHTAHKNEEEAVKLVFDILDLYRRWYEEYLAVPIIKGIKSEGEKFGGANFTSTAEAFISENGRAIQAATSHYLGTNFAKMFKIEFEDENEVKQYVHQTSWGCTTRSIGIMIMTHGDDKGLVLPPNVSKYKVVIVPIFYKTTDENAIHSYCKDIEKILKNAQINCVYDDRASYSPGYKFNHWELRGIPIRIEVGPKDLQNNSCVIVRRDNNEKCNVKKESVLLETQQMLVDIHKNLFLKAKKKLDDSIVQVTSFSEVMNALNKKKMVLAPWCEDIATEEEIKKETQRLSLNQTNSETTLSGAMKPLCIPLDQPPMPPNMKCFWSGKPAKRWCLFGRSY

Lysine--tRNA ligase = Lysine--tRNA ligase (Plasmodium falciparum (isolate 3D7), UniProt Q8IDJ8); assay: MMV: KRS recombinant Plasmodium falciparum Lysyl-tRNA-synthetase, assay with yeast tRNA, ATP, and lysine and 3 uM MMV malaria box compound, assay read out with kinase glo as % inhibition.
Sequence of Lysine--tRNA ligase (Q8IDJ8 whole entry): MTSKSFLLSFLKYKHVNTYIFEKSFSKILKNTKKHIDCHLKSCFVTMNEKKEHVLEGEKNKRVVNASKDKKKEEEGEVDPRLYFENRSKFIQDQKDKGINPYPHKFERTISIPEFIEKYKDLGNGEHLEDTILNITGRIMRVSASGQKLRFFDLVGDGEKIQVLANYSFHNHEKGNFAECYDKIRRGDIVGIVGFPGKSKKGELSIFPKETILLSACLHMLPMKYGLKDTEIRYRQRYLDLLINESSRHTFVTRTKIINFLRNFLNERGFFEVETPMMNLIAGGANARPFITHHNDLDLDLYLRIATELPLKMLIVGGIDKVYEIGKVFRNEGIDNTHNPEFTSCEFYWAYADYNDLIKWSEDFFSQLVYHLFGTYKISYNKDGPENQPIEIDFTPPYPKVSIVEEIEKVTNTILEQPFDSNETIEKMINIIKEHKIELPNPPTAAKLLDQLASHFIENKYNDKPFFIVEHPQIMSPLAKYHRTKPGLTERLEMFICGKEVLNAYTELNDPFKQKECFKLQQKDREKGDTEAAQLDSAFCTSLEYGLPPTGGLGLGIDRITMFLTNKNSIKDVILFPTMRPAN

Sequence of Calcium-dependent protein kinase 1 (P62344 whole entry): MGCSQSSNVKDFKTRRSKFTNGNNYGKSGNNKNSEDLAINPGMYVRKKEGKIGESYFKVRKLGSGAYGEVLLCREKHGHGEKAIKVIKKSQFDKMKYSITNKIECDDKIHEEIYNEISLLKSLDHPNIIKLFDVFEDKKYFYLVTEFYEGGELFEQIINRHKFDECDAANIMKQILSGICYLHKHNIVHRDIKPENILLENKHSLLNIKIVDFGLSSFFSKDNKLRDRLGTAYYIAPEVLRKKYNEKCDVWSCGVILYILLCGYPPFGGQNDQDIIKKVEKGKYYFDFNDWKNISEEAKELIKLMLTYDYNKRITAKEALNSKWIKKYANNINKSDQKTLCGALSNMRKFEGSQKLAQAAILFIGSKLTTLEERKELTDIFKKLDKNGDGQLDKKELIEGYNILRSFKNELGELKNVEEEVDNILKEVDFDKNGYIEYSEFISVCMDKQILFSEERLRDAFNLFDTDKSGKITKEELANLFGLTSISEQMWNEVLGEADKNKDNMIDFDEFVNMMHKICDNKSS

SMILES | IC50 [1] [µM] | IC50 [2] [µM] | IC50 [3] [µM] | IC50 [4] [µM] | IC50 [5] [µM] | IC50 (Proline--tRNA ligase) [µM] | IC50 (Lysine--tRNA ligase) [µM]
COc1ccc(C2c3ccc4ccccc4c3Oc3ncn(CCCN(C)C)c(=N)c32)cc1 (configuration not stated) | > 1 | > 1 | > 1 | > 1 | > 1 | > 2.5 | > 2.5
Nc1nc(Nc2cccc(F)c2)nc2ccccc12 | > 1 | > 1 | > 1 | > 1 | > 1 | > 2.5 | > 2.5
COc1ccc(/C=C2/SC(=Nc3ccccc3)NC2=O)cc1 | > 1 | > 1 | > 1 | > 1 | > 1 | > 2.5 | > 2.5
Cc1sc(NC(=O)c2ccccc2)c(C(c2cccs2)N2CCN(c3ccccc3)CC2)c1C (configuration not stated) | > 1 | > 1 | > 1 | > 1 | > 1 | > 2.5 | > 2.5
CCOC(=O)c1c(C)n(-c2ccccc2)c2ccc(OC(=O)c3cc(OC)c(OC)c(OC)c3)cc12 | > 1 | > 1 | > 1 | > 1 | > 1 | > 2.5 | > 2.5
N#Cc1nc(Cc2cccc3ccccc23)oc1N1CCN(C(c2ccccc2)c2ccccc2)CC1 | > 1 | > 1 | > 1 | > 1 | > 1 | > 2.5 | > 2.5
COc1cccc(Nc2nc(N)c3ccccc3n2)c1 | > 1 | > 1 | > 1 | > 1 | > 1 | > 2.5 | > 2.5
Cc1ccc(C(=O)c2oc3ccc4c(C)cc(=O)oc4c3c2C)cc1 | > 1 | > 1 | > 1 | > 1 | > 1 | > 2.5 | > 2.5
CCCCCCc1cc2cc(-c3csc(C=Cc4ccccc4)n3)c(=O)oc2cc1O | > 1 | > 1 | > 1 | > 1 | > 1 | > 2.5 | > 2.5
COc1ccc(CNC(=O)c2cc3c(=O)n4ccccc4nc3n(CCc3ccccc3)c2=N)cc1 | > 1 | > 1 | > 1 | > 1 | > 1 | > 2.5 | > 2.5
Cn1c(=O)n(C)c2cc(CNCCNc3ccnc4cc(Cl)ccc34)ccc21 | > 1 | > 1 | > 1 | > 1 | > 1 | > 2.5 | > 2.5
CCOc1ccc2nc(C)cc(Nc3ccc(N(C)C)cc3)c2c1 | > 1 | > 1 | > 1 | > 1 | > 1 | > 2.5 | > 2.5
COc1ccc(C=C2SC(Nc3ccc(F)cc3)=NC2=O)c(OC)c1 | > 1 | > 1 | > 1 | > 1 | > 1 | > 2.5 | > 2.5
O=C(Nc1ccc(-c2nc3cc(NC(=O)c4ccc(Cl)cc4)ccc3[nH]2)cc1)c1ccc(Cl)cc1 | > 1 | > 1 | > 1 | > 1 | > 1 | > 2.5 | > 2.5
COc1ccccc1C(=O)ON=C(N)Cc1cccc2ccccc12 | > 1 | > 1 | > 1 | > 1 | > 1 | > 2.5 | > 2.5
c1ccc(CNc2nc(Nc3ccccc3)nc3ccccc23)cc1 | > 1 | > 1 | > 1 | > 1 | > 1 | > 2.5 | > 2.5
CCOc1ccc2nc(C)cc(Nc3ccc(Br)cc3)c2c1 | > 1 | > 1 | > 1 | > 1 | > 1 | > 2.5 | > 2.5
COc1cc2c3cc1Oc1c(OC)c(OC)cc4c1C(Cc1ccc(O)c(c1)Oc1ccc(cc1)CC3N(C)CC2)N(C)CC4 (configuration not stated) | > 1 | > 1 | > 1 | > 1 | > 1 | > 2.5 | > 2.5
COc1ccc2sc(N(Cc3cccnc3)C(=O)c3ccc(C#N)cc3)nc2c1 | > 1 | > 1 | > 1 | > 1 | > 1 | > 2.5 | > 2.5
CCOC(=O)c1cnc2ccc(OC)cc2c1NCc1ccccc1 | > 1 | > 1 | > 1 | > 1 | > 1 | > 2.5 | > 2.5
CCOC(=O)C1=CN(C)C=C(C(=O)OCC)C1c1cc(Br)c(OCC)c(OC)c1 | > 1 | > 1 | > 1 | > 1 | > 1 | > 2.5 | > 2.5
